Reference: PubChem BioAssay (NCI)
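Protocol summary: plate cells (96-well), add compound at 5 concentrations, incubate 48 h, interpolate endpoints linearly. GI50 = concentration required for 50% inhibition of growth. Definition used: TGI = concentration required for complete inhibition of growth.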

Key:
Test in all cases: inhibition of tumour cell growth, NCI panel, 48 h
786-0 renal = tested on: 786-0 renal
EKVX NSCLC = tested on: EKVX NSCLC
OVCAR-4 ovarian = tested on: OVCAR-4 ovarian
OVCAR-5 ovarian = tested on: OVCAR-5 ovarian
RPMI-8226 leukemia = tested on: RPMI-8226 leukemia
SF-295 CNS = tested on: SF-295 CNS
UACC-257 melanoma = tested on: UACC-257 melanoma
HL-60(TB) leukemia = tested on: HL-60(TB) leukemia
NCI-H522 lung = tested on: NCI-H522 lung

| Structure (SMILES) | TGI (786-0 renal) | TGI (EKVX NSCLC) | TGI (OVCAR-4 ovarian) | TGI (OVCAR-5 ovarian) | TGI (RPMI-8226 leukemia) | TGI (SF-295 CNS) | TGI (UACC-257 melanoma) | TGI (HL-60(TB) leukemia) | TGI (NCI-H522 lung) | GI50 (786-0 renal) | GI50 (EKVX NSCLC) | GI50 (NCI-H522 lung) | GI50 (OVCAR-4 ovarian) | GI50 (OVCAR-5 ovarian) | GI50 (RPMI-8226 leukemia) | GI50 (SF-295 CNS) | GI50 (UACC-257 melanoma) | GI50 (HL-60(TB) leukemia) |
| --- | --- | --- | --- | --- | --- | --- | --- | --- | --- | --- | --- | --- | --- | --- | --- | --- | --- | --- |
| CCC(C)c1cnc(CC(C)C)c(=O)[nH]1 (stereo unspecified) | > 100 µM | > 100 µM | > 100 µM | > 100 µM | > 100 µM | > 100 µM | > 100 µM |  |  |  |  |  |  |  |  |  |  |  |
| CCCCCCCCCCCCOC(=S)NC | 34.2 µM | 36.7 µM | 56 µM | 25.3 µM | 36.1 µM | 43.9 µM | 42.2 µM | > 100 µM | 58 µM |  |  |  |  |  |  |  |  |  |
| CN(/C(=N\O)c1ccccc1)c1ccccc1 | 89 µM | 74.3 µM | > 100 µM | > 100 µM |  | 43.4 µM | > 100 µM | 48.7 µM | 40.3 µM |  |  |  |  |  |  |  |  |  |
| C[C@@]1(CBr)C[C@@](C)(/C=C/Cl)[C@@H](Cl)C[C@H]1Cl | 27 µM | 33 µM | 24.6 µM | 26.3 µM |  | 26.8 µM | 24.2 µM | 8.6 µM | 14.5 µM |  |  |  |  |  |  |  |  |  |
| COC(=O)C1=C2CO[C@@H]3C[C@H]4C(C)(C)CCC[C@]4(C)C(=CC1)[C@]23C | > 100 µM | > 100 µM | > 100 µM | > 100 µM | 29.9 µM | 37.6 µM | > 100 µM |  | > 100 µM | 41.5 µM | 45.5 µM | 29.4 µM | 62.1 µM | 21.8 µM | 13.6 µM | 14.9 µM | 35.7 µM |  |
| O/N=C1/C(=C/c2ccc(Cl)cc2)CCCC1C(NO)c1ccc(Cl)cc1 (stereo unspecified) | 42.7 µM | 74.8 µM | 32.8 µM |  | 44.4 µM | 36.4 µM | 31.6 µM | 43.3 µM | 62.8 µM |  |  |  |  |  |  |  |  |  |
| CCc1ccccc1NC(=O)C1=C(C)NC(C)=C(C(=O)Nc2ccccc2CC)C1c1ccc(NC(C)=O)cc1 | > 100 µM | > 100 µM | > 100 µM | > 100 µM | 48.9 µM | > 100 µM | > 100 µM | 39.5 µM | 71.1 µM |  |  |  |  |  |  |  |  |  |
| CCC[CH2][Sn]1([CH2]CCC)[O]CC([CH2][Sn]([c]2ccccc2)([c]2ccccc2)[c]2ccccc2)[O]1 (stereo unspecified) | 24.5 µM | 26.3 µM |  | 31 µM | 18.7 µM | 30.4 µM | 26.6 µM | 8.38 µM | 3.37 µM | 11.8 µM | 13.4 µM | 1.4 µM |  | 17 µM | 2.85 µM | 16.2 µM | 12.6 µM | 2.47 µM |
| CC(=O)OC1C/C(C)=C/[C@H](O)CC(C)/C=C/[C@@]2(C)CCC(C(C)(C)O)C12 (stereo partly specified) | > 100 µM | > 100 µM | > 100 µM | > 100 µM | > 100 µM | > 100 µM | > 100 µM | > 100 µM |  |  |  |  |  |  |  |  |  |  |
| CC(=O)Oc1cc(OC(C)=O)c2cc3c(cc2c1OC(C)=O)C(=O)C1(CCCC1)C3=O | 31.5 µM | 38 µM | 33 µM |  | 4.89 µM | 29.9 µM |  | 73.6 µM |  |  |  |  |  |  |  |  |  |  |
| CCCCCCCCCCCCCCCCCCOCC1(COP(=O)([O-])OCC[N+](C)(C)C)CCCO1 (stereo unspecified) | 13.6 µM |  | 8.38 µM | 25.1 µM | 8.55 µM | 6.84 µM | 27.3 µM | 5.24 µM | 6.23 µM |  |  |  |  |  |  |  |  |  |
| CC(=O)[CH-]C(=O)c1ccccc1.CC(=O)[CH-]C(=O)c1ccccc1.CC12CC3(C)CC(C)(C1)CC([O-])(C2)C3.CC[O-].[Ti+4] | > 100 µM |  | 53.3 µM |  | 95.5 µM | > 100 µM | 76.1 µM | > 100 µM | 44.6 µM | 29.3 µM |  | 21.2 µM | 17.9 µM |  | 8.54 µM | 33.4 µM | 27.9 µM | 27.8 µM |
| Cn1c(=O)c2[nH]cnc2n(CC(=O)O)c1=O | > 100 µM | > 100 µM |  | > 100 µM | > 100 µM |  |  |  | > 100 µM |  |  |  |  |  |  |  |  |  |
| NC(=O)C12CCC1C1CCCCC12N1CCOCC1 (stereo unspecified) | > 100 µM | > 100 µM | > 100 µM | > 100 µM | > 100 µM | > 100 µM |  | > 100 µM | > 100 µM |  |  |  |  |  |  |  |  |  |
| N#CNc1nc(C(=O)Nc2ccc(Cl)cc2)cc(-c2ccccc2)n1 | > 100 µM | > 100 µM | > 100 µM | > 100 µM | > 100 µM | > 100 µM | > 100 µM | > 100 µM |  |  |  |  |  |  |  |  |  |  |
| CC(C)(C)[Si](Nc1ccccc1)(c1ccccc1)c1ccccc1 | 28.4 µM | 30.3 µM | 27.1 µM |  | 44.1 µM | 26 µM | 28.4 µM | 31.3 µM |  |  |  |  |  |  |  |  |  |  |
| CN(C)NC(=S)NC12CC3CC(CC(C3)C1)C2 | > 100 µM | > 100 µM | > 100 µM | > 100 µM |  | > 100 µM | > 100 µM | > 100 µM | > 100 µM |  |  |  |  |  |  |  |  |  |
| O=C1c2c(O)cccc2C(C(=O)CCCC(=O)C2c3cccc(O)c3C(=O)c3c(O)cccc32)c2cccc(O)c21 | 9.72 µM | 2.35 µM | 0.82 µM | 1.18 µM | 0.752 µM | 2.22 µM | 0.893 µM |  |  |  |  |  |  |  |  |  |  |  |
| O=C(Cc1nc2ccccc2s1)C(=O)Nc1ccc(Cl)cc1Cl | > 100 µM |  | > 100 µM | > 100 µM | > 100 µM | > 100 µM | > 100 µM |  |  |  |  |  |  |  |  |  |  |  |
